In patent US20060074243A1, “Hydroxamic acid and amide compounds and their use as protease inhibitors” (Pharmacia Corporation, priority 2002, published 2006):

Experiments:
Assay in all cases: In vitro MMP inhibition analysis (fluorogenic peptide substrate cleavage), Ki
Type in all cases: biochemical
Settings in all cases: Table 2
[1] = biological target: T1, Human recombinant MMP-2 (Homo sapiens, UniProt P08253)
T1 construct: made in house; host or cells: MMP-2-transfected p2AHT2 cells
T1 sequence (P08253 110-660): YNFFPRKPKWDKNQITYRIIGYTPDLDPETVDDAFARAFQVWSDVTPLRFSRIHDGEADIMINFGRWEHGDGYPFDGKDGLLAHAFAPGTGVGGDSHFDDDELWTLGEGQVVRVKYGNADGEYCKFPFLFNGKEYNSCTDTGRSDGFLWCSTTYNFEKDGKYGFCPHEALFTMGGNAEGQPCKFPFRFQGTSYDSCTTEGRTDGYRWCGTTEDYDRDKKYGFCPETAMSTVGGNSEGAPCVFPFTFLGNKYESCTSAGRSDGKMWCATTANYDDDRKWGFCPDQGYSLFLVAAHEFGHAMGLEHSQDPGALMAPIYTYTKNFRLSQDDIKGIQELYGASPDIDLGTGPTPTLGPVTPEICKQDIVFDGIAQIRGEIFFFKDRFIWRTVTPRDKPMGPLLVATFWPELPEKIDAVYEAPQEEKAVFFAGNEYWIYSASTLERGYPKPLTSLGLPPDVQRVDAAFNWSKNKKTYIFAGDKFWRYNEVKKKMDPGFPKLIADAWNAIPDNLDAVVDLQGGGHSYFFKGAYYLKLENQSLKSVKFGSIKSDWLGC
Method in brief: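 Human recombinant MMP-2 from transfected p2AHT2 cells was activated with APMA or trypsin and incubated 1 h at room temperature with compounds and 4 μM MCA-RPLGL(Dpa)ARER-NH2. Buffer was pH 7.5 Tris/NaCl/CaCl2, and fluorescence was read at ex 330/em 420 nm. Ki was fitted by Morrison's equation without substrate correction.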

[2] = biological target: T2, Human recombinant MMP-14 (Homo sapiens, UniProt P50281)
T2 construct: The catalytic domain enzyme was expressed in E. coli inclusion bodies, solubilized in urea; made in house
Method in brief: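 Refolded catalytic domain of MMP-14 expressed in E. coli, activated with APMA or trypsin, incubated 1 h at room temperature with 4 μM MCA-peptide substrate in Tris buffer pH 7.5 with CaCl2. Cleavage rate followed by fluorescence (ex 330/em 420 nm). Ki from Morrison-equation fit; substrate at or below Km, so no substrate correction.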

[3] = biological target: T3, Human recombinant MMP-9 (Homo sapiens, UniProt P14780)
T3 construct: made in house; host or cells: MMP-9-transfected HT1080 cells (spent media)
Method in brief: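 Recombinant MMP-9 purified from transfected HT1080 cell media, activated with APMA, trypsin or recombinant MMP-3, assayed in Tris buffer pH 7.5 with CaCl2 and 4 μM fluorogenic MCA/Dpa peptide, 1 h at room temperature (ex 330/em 420 nm). Ki from Morrison-equation regression of velocity; substrate at or below Km, uncorrected.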

[4] = biological target: T4, Human recombinant MMP-1 (Homo sapiens, UniProt P03956)
T4 construct: made in house; host or cells: MMP-1-transfected HT-1080 cells (spent media)
T4 sequence (P03956 100-469): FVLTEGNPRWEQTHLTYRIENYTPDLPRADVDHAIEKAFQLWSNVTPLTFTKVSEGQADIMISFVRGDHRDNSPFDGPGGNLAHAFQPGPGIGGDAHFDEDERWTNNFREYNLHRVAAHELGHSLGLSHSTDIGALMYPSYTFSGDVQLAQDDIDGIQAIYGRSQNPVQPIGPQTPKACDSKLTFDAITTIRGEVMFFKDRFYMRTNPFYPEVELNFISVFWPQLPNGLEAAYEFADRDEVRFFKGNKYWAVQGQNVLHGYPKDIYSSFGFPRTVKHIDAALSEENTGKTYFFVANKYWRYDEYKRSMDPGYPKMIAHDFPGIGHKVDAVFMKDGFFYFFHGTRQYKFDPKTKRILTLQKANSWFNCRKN
Method in brief: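 APMA- or trypsin-activated recombinant human MMP-1 (purified from transfected HT-1080 medium) with 4 μM MCA/Dpa quenched fluorogenic peptide, 1 h at room temperature in Tris/NaCl/CaCl2 buffer pH 7.5; fluorescence ex 330/em 420 nm. Ki from Morrison-equation fit of rates, substrate at or below Km, uncorrected.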

T3 sequence (P14780 107-707 limits assumed): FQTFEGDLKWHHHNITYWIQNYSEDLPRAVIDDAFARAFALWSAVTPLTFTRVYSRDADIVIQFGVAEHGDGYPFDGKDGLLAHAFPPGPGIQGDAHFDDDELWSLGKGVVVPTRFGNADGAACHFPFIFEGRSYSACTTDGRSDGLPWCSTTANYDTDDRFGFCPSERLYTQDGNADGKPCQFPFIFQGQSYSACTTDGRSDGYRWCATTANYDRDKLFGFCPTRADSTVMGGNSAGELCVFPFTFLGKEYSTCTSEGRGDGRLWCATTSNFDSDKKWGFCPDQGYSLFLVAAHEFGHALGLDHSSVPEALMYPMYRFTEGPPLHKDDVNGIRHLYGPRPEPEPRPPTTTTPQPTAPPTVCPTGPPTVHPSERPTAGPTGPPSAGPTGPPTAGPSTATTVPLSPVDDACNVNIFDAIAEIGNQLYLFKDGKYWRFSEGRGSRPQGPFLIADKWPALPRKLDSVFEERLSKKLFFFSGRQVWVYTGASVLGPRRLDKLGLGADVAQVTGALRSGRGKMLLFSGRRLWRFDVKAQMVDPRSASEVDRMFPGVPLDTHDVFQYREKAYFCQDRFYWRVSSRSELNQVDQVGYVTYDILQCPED

Ki [1]	Ki [2]	Ki [3]	Ki [4]	SMILES
0.02 nM	56.7 nM	0.03 nM	327 nM	CCOc1ccc(-c2ccc(S(=O)(=O)C3(C(=O)NO)CCOCC3)cc2)cc1 [Example 163]
0.6 nM	152 nM	0.57 nM	2490 nM	COCC#Cc1cnc(-c2ccc(S(=O)(=O)C3(C(=O)NO)CCOCC3)cc2)cn1 [Example 164]
